{"source": "paper PMC7923466", "about": "“Mining of two novel aldehyde dehydrogenases (DHY-SC-VUT5 and DHY-G-VUT7) from metagenome of hydrocarbon contaminated soils” (BMC Biotechnology, 2021)", "key": {"DHY-G-VUT7": {"tested_on": "T1, DHY-G-VUT7", "T1 construct": "codon-optimised synthetic gene in pET-30a(+) (NdeI/HindIII), C-terminal 6xHis kept, E. coli BL21(DE3), Ni-NTA purified, ~67 kDa band", "assay": "NADH formation at […] nm, Michaelis-Menten fit (GraphPad Prism)", "assay_type": "biochemical, metagenome: hydrocarbon contaminated soil", "details": "50 mM NAD+, 50 mM Tris-HCl pH 8.0, 30 °C; hexanal 25-200 mM"}, "DHY-SC-VUT5": {"tested_on": "T2, DHY-SC-VUT5", "T2 construct": "codon-optimised synthetic gene in pET-30a(+) (NdeI/HindIII), C-terminal 6xHis kept, E. coli BL21(DE3), Ni-NTA purified, ~51 kDa band", "assay": "NADH formation at […] nm, Michaelis-Menten fit (GraphPad Prism)", "assay_type": "biochemical, uncultured bacterium", "details": "50 mM NAD+, 50 mM Tris-HCl pH 8.0, 30 °C; hexanal 25-200 mM"}}, "data": [{"molecule": "CCCCCC=O", "note": "[hexanal]", "values": [{"measurement": "Km", "setting": "DHY-G-VUT7", "value": 2.83, "unit": "mM"}, {"measurement": "Km", "setting": "DHY-SC-VUT5", "value": 13.8, "unit": "mM"}]}]}
